Laboratory results from US12022832B2, “Compounds and methods for treating nematode infections” (The Governing Council of The University of Toronto, priority 2018, dated 2024).
Where two headings read alike, the source gives them in different places.

Assays:
C. elegans (L1) = experiment: C. elegans L1 viability, three day protocol; type: in vivo, Caenorhabditis elegans; conditions: for EC (80% dead): Caenorhabditis elegans, read-out: C. elegans (L1 viability): lowest concentration tested in which at least 80% of animals were dead; for C. elegans (L1 viability): lowest concentration tested in which greater than 20% of animals were dead: compounds 55-11, 55-12-21, 55-12-23
M. incognita (J2) = experiment: M. incognita J2 viability in vitro; type: in vivo, Meloidogyne incognita; conditions: assay done using 45 uM; for M. incognita (J2 viability in vitro): concentration giving >20% and <80% death: 48 or 72 hours, other compounds
C. elegans = C. elegans acute motor (rubber-band, convulsion/paralysis) phenotype on solid substrate; type: in vivo, Caenorhabditis elegans; conditions: for C. elegans acute motor phene: concentration at which 10-50% of the animals exhibit convulsion/paralysis phenotypes / C. elegans acute motor phene: lowest concentration at which 50% of the young adult animals exhibit convulsion/paralysis phenotypes: solid substrate; for C. elegans acute motor phene: concentration at which 10-50% of the animals exhibit convulsion/paralysis phenotypes: 80 minutes, compounds 55-12-6, 55-12-9, 55-12-12, 55-12-21, 55-12-23; for C. elegans acute motor phene: lowest concentration at which 50% of the young adult animals exhibit convulsion/paralysis phenotypes: 80 minutes of incubation
Source text: Worms are scored for the indicated phenotype (see legend); convulsions along the circumferential axis is characterized as the ‘shaker’ phenotype in C. elegans; convulsions along the anterior-posterior axis is characterized as the ‘rubber-band’ phenotype in C. elegans. 18 young-adult animals were scored at each time-point for rubber-band (animals spontaneously contract or do so upon touch on the nose with a platinum wire), hyperactive movement (observing rapid lateral nose movement) and shaker (spontaneous circumferential rotations). […] Data are showing the mean number of animals with each phenotype.
If a penetrant phenotype is observed, a dose-response analysis is performed; the EC50 is shown.
Each compound was added to the MYOB substrate before pouring to achieve desired concentration after diffusion through the media. The final concentration of dimethyl sulfoxide (DMSO) in each of the wells was […]. Young adult or fourth-staged larval worms are transferred into each well using a platinum wire pick.
˜25 young adult animals of each indicated strain were picked using a platinum wire onto 2% MYOB agar containing the indicated drug condition with 1% DMSO. […] 18 animals were scored per trial; data are the mean response of 2-3 replicates showing the standard error of the mean.

M. incognita (eggs) = experiment: M. incognita egg-hatch assay; type: in vivo, Meloidogyne incognita; conditions: 45 uM of each compound, ~50 eggs per well; effect threshold not stated
C. elegans (dauer) = experiment: C. elegans dauer viability; type: in vivo, Caenorhabditis elegans; conditions: relative to no-drug controls; for C. elegans (dauer viability): lowest concentration tested in which at least 80% of animals were dead: 72 hours
P. hermaphrodita (L1) = experiment: P. hermaphrodita L1 viability; type: in vivo, Phasmarhabditis hermaphrodita; conditions: 72 hours; for P. hermaphrodita (L1 viability): lowest concentration tested in which at least 80% of animals were dead: relative to no-drug controls; for P. hermaphrodita (L1 viability): lowest concentration tested in which greater than 20% of animals were dead: compounds 55-6, 55-12-20, 55-12-22
C. elegans (adult) = experiment: C. elegans adult viability; type: in vivo, Caenorhabditis elegans; conditions: 72 hours, relative to no-drug controls
P. pacificus (L1) = experiment: P. pacificus L1 viability; type: in vivo, Pristionchus pacificus; conditions: 72 hours; for P. pacificus (L1 viability): lowest concentration tested in which at least 80% of animals were dead: relative to no-drug controls
M. incognita = M. incognita Quick Soil Test (tomato); type: in vivo, Meloidogyne incognita; conditions: 45 uM, ~2000 J2 per tomato plant, worms in soil 4 days; for M. incognita (Quick Soil Test): concentration giving >80% killing: J2s counted in root tissue; for M. incognita (Quick Soil Test): concentration giving 10-20% killing: other compounds
[1] = 72 hours, relative to no-drug controls

Row | Compound | EC (80% dead) (C. elegans (L1); [1]) | M. incognita (J2 viability in vitro): concentration giving >20% and <80% death (M. incognita (J2)) | M. incognita (Egg Hatch Rate) (M. incognita (eggs)) | C. elegans (dauer viability): lowest concentration tested in which at least 80% of animals were dead (C. elegans (dauer)) | C. elegans (adult viability): lowest concentration tested in which at least 80% of animals were dead (C. elegans (adult)) | other results
1 | CCCc1ccc(-c2ccc(OC(F)F)cc2)cn1 [IIIaa (wact-55-12-7), 5-(4-(difluoromethoxy)phenyl)-2-propylpyridine] | 30 µM |  |  |  |  | M. incognita (J2 viability in vitro): concentration giving >80% death (M. incognita (J2); 48 or 72 hours of incubation): 45 µM
2 | CCCc1ccc(-c2ccc(OC(F)F)cn2)cc1 [IIIbb (wact-55-12-8), 5-(difluoromethoxy)-2-(4-propylphenyl)pyridine] |  | np |  |  |  | EC (80% dead) (C. elegans (L1); 72 h): 60 µM
3 | CCCc1ccc(-c2ccc(OC(F)F)nc2)cc1 [IIIcc (wact-55-12-9), 2-(difluoromethoxy)-5-(4-propylphenyl)pyridine] |  | np | np |  |  | C. elegans acute motor phene: concentration at which 10-50% of the animals exhibit convulsion/paralysis phenotypes (C. elegans): 60 μM; EC (80% dead) (C. elegans (L1); 72 h): 60 µM
4 | CCc1ccc(-c2ccc(OC(F)F)cc2)nc1 [IIIdd (wact-55-12-10), 2-(4-(difluoromethoxy)phenyl)-5-ethylpyridine] | 30 µM |  |  | 30 µM | np | P. hermaphrodita (L1 viability): lowest concentration tested in which at least 80% of animals were dead (P. hermaphrodita (L1)): 15 µM; P. pacificus (L1 viability): lowest concentration tested in which at least 80% of animals were dead (P. pacificus (L1)): 15 µM
5 | Cc1ccc(-c2ccc(OC(F)F)cc2)nc1 [IIIee (wact-55-12-11), 2-(4-(difluoromethoxy)phenyl)-5-methylpyridine] | 60 µM | np |  |  |  | 
6 | FC(F)Oc1ccc(-c2ccccn2)cc1 [IIIff (wact-55-12-12), 2-(4-(difluoromethoxy)phenyl)pyridine] |  | 45 µM |  | np | np | C. elegans acute motor phene: concentration at which 10-50% of the animals exhibit convulsion/paralysis phenotypes (C. elegans): 60 μM; P. hermaphrodita (L1 viability): lowest concentration tested in which at least 80% of animals were dead (P. hermaphrodita (L1)): 60 µM; P. pacificus (L1 viability): lowest concentration tested in which at least 80% of animals were dead (P. pacificus (L1)): 60 µM; C. elegans (L1 viability): lowest concentration tested in which at least 80% of animals were dead (C. elegans (L1); [1]): np; M. incognita (Quick Soil Test): concentration giving >80% killing (M. incognita): 45 µM
7 | CC#Cc1ccc(-c2ccc(OC(F)F)cc2)nc1 [IIIhh (wact-55-12-14), 2-(4-(difluoromethoxy)phenyl)-5-(prop-1-yn-1-yl)pyridine] | 7.5 µM | np |  |  |  | 
8 | NCc1ccc(-c2ccc(OC(F)F)cc2)nc1 [IIIkk (wact-55-12-17), (6-(4-(difluoromethoxy)phenyl)pyridin-3-yl)methanamine] |  | np | np |  |  | C. elegans acute motor phene: lowest concentration at which 50% of the young adult animals exhibit convulsion/paralysis phenotypes (C. elegans): np; M. incognita (Hatching Mobility) (M. incognita (eggs)): np; C. elegans (L1 viability): lowest concentration tested in which at least 80% of animals were dead (C. elegans (L1); [1]): np
9 | CCCc1cccc(-c2ccc(OC(F)F)cc2)n1 [IIInn (wact-55-12-20), 2-(4-(difluoromethoxy)phenyl)-6-propylpyridine] |  |  |  | np | np | C. elegans acute motor phene: lowest concentration at which 50% of the young adult animals exhibit convulsion/paralysis phenotypes (C. elegans): np; P. hermaphrodita (L1 viability): lowest concentration tested in which greater than 20% of animals were dead (P. hermaphrodita (L1)): 60 µM; P. pacificus (L1 viability): lowest concentration tested in which greater than 20% of animals were dead (P. pacificus (L1); compound 55-12-20): 30 µM; C. elegans (L1 viability): lowest concentration tested in which at least 80% of animals were dead (C. elegans (L1); [1]): np
10 | CCCc1ccnc(-c2ccc(OC(F)F)cc2)c1 [IIIoo (wact-55-12-21), 2-(4-(difluoromethoxy)phenyl)-4-propylpyridine] |  | np | np | np | np | C. elegans acute motor phene: concentration at which 10-50% of the animals exhibit convulsion/paralysis phenotypes (C. elegans): 60 μM; P. hermaphrodita (L1 viability): lowest concentration tested in which at least 80% of animals were dead (P. hermaphrodita (L1)): 30 µM; P. pacificus (L1 viability): lowest concentration tested in which at least 80% of animals were dead (P. pacificus (L1)): 30 µM; C. elegans (L1 viability): lowest concentration tested in which greater than 20% of animals were dead (C. elegans (L1); [1]): 60 µM; M. incognita (Quick Soil Test): concentration giving >80% killing (M. incognita): 45 µM
11 | CCCc1cccnc1-c1ccc(OC(F)F)cc1 [IIIpp (wact-55-12-22), 2-(4-(difluoromethoxy)phenyl)-3-propylpyridine] |  |  |  | np | np | C. elegans acute motor phene: lowest concentration at which 50% of the young adult animals exhibit convulsion/paralysis phenotypes (C. elegans): np; P. hermaphrodita (L1 viability): lowest concentration tested in which greater than 20% of animals were dead (P. hermaphrodita (L1)): 60 µM; P. pacificus (L1 viability): lowest concentration tested in which at least 80% of animals were dead (P. pacificus (L1)): np; C. elegans (L1 viability): lowest concentration tested in which at least 80% of animals were dead (C. elegans (L1); [1]): np
12 | CCCc1ccc(-c2cccc(OC(F)F)c2)nc1 [IIIqq (wact-55-12-23), 2-(3-(difluoromethoxy)phenyl)-5-propylpyridine] |  | np | np | np | np | C. elegans acute motor phene: concentration at which 10-50% of the animals exhibit convulsion/paralysis phenotypes (C. elegans): 60 μM; P. hermaphrodita (L1 viability): lowest concentration tested in which at least 80% of animals were dead (P. hermaphrodita (L1)): 15 µM; M. incognita (Hatching Mobility) (M. incognita (eggs)): np; P. pacificus (L1 viability): lowest concentration tested in which at least 80% of animals were dead (P. pacificus (L1)): 30 µM; C. elegans (L1 viability): lowest concentration tested in which greater than 20% of animals were dead (C. elegans (L1); [1]): 60 µM; M. incognita (Quick Soil Test): concentration giving 10-20% killing (M. incognita): 45 uM
13 | CCCc1cnc(-c2ccc(OC(F)F)cc2)nc1 [IIIss (wact-55-12-25), 2-(4-(difluoromethoxy)phenyl)-5-propylpyrimidine] |  | np |  |  |  | 
14 | CC(C)Cc1ccc(-c2ccc(OC(F)F)cc2)nc1 [IIItt (wact-55-12-26), 2-(4-(difluoromethoxy)phenyl)-5-isobutylpyridine] | 30 µM | np |  |  |  | M. incognita (Hatching Mobility) (M. incognita (eggs)): np; M. incognita (Quick Soil Test): concentration giving 10-20% killing (M. incognita): 45 uM
15 | CCCCc1ccc(-c2ccc(OC(F)F)cc2)nc1 [IIIuu (wact-55-12-27), 5-butyl-2-(4-(difluoromethoxy)phenyl)pyridine] | 15 µM | np | np |  |  | 
16 | CCCCc1ccc(-c2ccc(OC)cc2)nc1 [IIIw (wact-55-12-28), 5-butyl-2-(4-methoxyphenyl)pyridine] | 15 µM | 45 µM |  |  |  | M. incognita (Quick Soil Test): concentration giving >80% killing (M. incognita): 45 µM
17 | CCCc1ccc(-c2ccc(SC(F)F)cc2)nc1 [IIIy (wact-55-12-5), 2-(4-((difluoromethyl)thio)phenyl)-5-propylpyridine] | 30 µM | np |  |  |  | 
18 | CCCc1ccc(-c2ccc(OC(F)F)cc2)cc1 [IIIz (wact-55-12-6), 4-(difluoromethoxy)-4′-propyl-1,1′-biphenyl] | 30 µM | np | np |  | np | C. elegans acute motor phene: concentration at which 10-50% of the animals exhibit convulsion/paralysis phenotypes (C. elegans): 60 μM; C. elegans (dauer viability): concentration where 10-20% death is exhibited (C. elegans (dauer); compounds 55-2, 55-8, 55-9, 55-12-6): 60 μM; P. hermaphrodita (L1 viability): lowest concentration tested in which at least 80% of animals were dead (P. hermaphrodita (L1)): 7.5 µM; M. incognita (Quick Soil Test): concentration giving 10-20% killing (M. incognita): 45 uM
19 | CCCCCCCCCCCCCC(=O)O[C@@H]1[C@@H](C)[C@@]2(O)[C@@H](C=C(CO)C[C@]3(O)C(=O)C(C)=C[C@@H]23)[C@@H]2C(C)(C)[C@]12OC(C)=O [PMA, phorbol myristate acetate, reference compound] |  |  |  |  |  | induction of rubber-band (RB) convulsions (C. elegans; in vivo): fail to induced a RB phenotype
